# Reference: article PMC11999280, “Design and screening of novel endosomal escape compounds that enhance functional delivery of oligonucleotides in vitro” (Molecular Therapy. Nucleic Acids, 2025)
# Legend:
# Format in all cases: cell-based
# [1] = tested on: HeLa_Luc705 cells (pLuc/705 splice-switching reporter); test: Functional 705-SSO delivery, luciferase splice-switching assay; conditions: HeLa-Luc705 + 2 µM SSO; EEE 2.5 - 3 µM; mean from >3 independent experiments
# Description: Therefore, next, we functionally screened the SSO delivery in the HeLa_Luc705 reporter cell line. HeLa_Luc705 carries a pLuc/705 splice-switching reporter luciferase gene interrupted by a mutated β-globin intron, which creates a preferentially used cryptic 5′ splice site leading to aberrant splicing. Functional SSO delivery masks the cryptic site, redirecting the splicing machinery to the right splicing site, allowing the measurement of luciferase expression (Figure S1).[25]^,[26]^,[27]^,[28] We used SSO transfection with LF2000 as transfection control and the previously published endosomal escape enhancer CMP05 (here, EEE2) as positive control.[15]
# For the assessment of functional SSO therapeutics, a HeLa_Luc705 cell line was grown in DMEM media supplemented with 10% fetal bovine serum (FBS). For most treatments, 10,000 cells/well were seeded in a 96-well plate, 24 h pre-incubated with 1- to 2-μM oligonucleotide, and then treated at the described EEE concentration. At 24 h post-treatment, cells were PBS rinsed and collected for further analysis (treatments and incubation times changed accordingly to the experiment design). Luciferase readout was performed as previously described,[15] using a GloMax 96-well plate microplate luminometer (Promega) immediately after adding 30 μL auto-injected luciferin substrate (Promega Firefly Luciferase Assay System; Thermo Scientific, catalog no. 16174) in a white-walled 96-well plate containing 30 μL 0.1% Triton X-100 (Sigma-Aldrich) cell lysed. Photon exposure time and delay were set to 10 and 2 s after injection. LF2000 was used as the transfection reagent control (Thermo Scientific, catalog no. 11668019). For EEE experiments using 1 or 2 μM SSOs, the control was prepared using lipofection with 100–200 nM SSO; this is to avoid complex induced cell toxicity.
# 705-SSO was purchased from and synthesized by Integrated DNA Technologies. The 705-SSO sequence was previously published, containing 2′-O-methylated bases and only phosphorothioate-saturated backbone linkages were included.[15] The 705-SSO was high-performance liquid chromatography purified, shipped, and stored in IDTE buffer (10 mM Tris, 0.1 mM EDTA).
# [2] = tested on: mCherry-GAL9 expressing 16HBE cells; test: GAL9 recruitment assay, 16HBE; conditions: calculated mean from >3 independent exp.
# Method: (§1) Experiments assessing GAL9 localization as an indicator for endosomal remodeling were performed as previously described[15] using 8× stablemCherry-GAL9 expressing cell lines, SHSY5Y, U2OS, 16HBE, NCI-H358, HuH7, HepG2, HEK293, and HeLa. For mCherry-GAL9 recruitment, 3,000 or 6,500 cells/well (depending upon cell line) were seeded into 384-well CellCarrier Ultra plates 24 h prior to treatment (PerkinElmer, catalog no. 6007558). An Echo 655T acoustic dispenser (Labcyte) was used for EEE dose-response preparation by transferring to the cell plate. At assay endpoints, cells were PBS washed, 4% paraformaldehyde fixed at room temperature […] (VWR, catalog no. 9713.1000), and nuclei stained with PBS +1 μg/mL Hoechst 33342 (Thermo Fisher Scientific, catalog no. H21492).
# (§2) Imaging was performed using a spinning-disk confocal microscope (Yokogawa: CV8000) with a ×20w objective (numerical aperture 1.0). Cells and mCherry-GAL9 structure identification and quantification were done using Columbus image-analysis software (PerkinElmer version 2.9.0). Data processing was done using Spotfire (Tibco version 11.4) and Prism (GraphPad version 9.1.0). Image panels were assembled using the FigureJ plugin for FIJI.[43] All mCherry-GAL9 experiments were performed three times (N = 3) with duplicated wells per treatment (n = 2).
# [3] = tested on: mCherry-GAL9 expressing HEK293 cells; test: GAL9 recruitment assay, HEK293; conditions: calculated mean from >3 independent exp.
# Method: as §1, §2
# [4] = tested on: mCherry-GAL9 expressing U2OS cells; test: GAL9 recruitment assay, U2OS; conditions: calculated mean from >3 independent exp.
# Method: as §1, §2
# [5] = tested on: mCherry-GAL9 expressing HeLa cells; test: GAL9 recruitment assay, HeLa; conditions: calculated mean from >3 independent exp.
# Method: as §1, §2
# [6] = tested on: mCherry-GAL9 expressing NCI-H358 cells; test: GAL9 recruitment assay, NCI-H358; conditions: calculated mean from >3 independent exp.
# Method: as §1, §2
# [7] = tested on: mCherry-GAL9 expressing SHSY5Y cells; test: GAL9 recruitment assay, SHSY5Y; conditions: calculated mean from >3 independent exp.
# Method: as §1, §2
# [8] = tested on: mCherry-GAL9 expressing HepG2 cells; test: GAL9 recruitment assay, HepG2; conditions: calculated mean from >3 independent exp.
# Method: as §1, §2
# [9] = tested on: mCherry-GAL9 expressing HuH7 cells; test: GAL9 recruitment assay, HuH7; conditions: calculated mean from >3 independent exp.
# Method: as §1, §2
structure (smiles),measurement,setting,value
CCN1CCC(n2cc(Nc3ncc(F)c(-n4ccc5c(C#N)cccc54)n3)c(OC)n2)CC1 [EEE11],Luciferase expression compared to reference,[1],2.093
same,Gal9 response compared to reference,[2]; EEE 0.31 µM,0.013
same,Gal9 response compared to reference,[2]; EEE 0.62 µM,0.013
same,Gal9 response compared to reference,[2]; EEE 1.25 µM,0.056
same,Gal9 response compared to reference,[2]; EEE 2.5 µM,0.167
same,Gal9 response compared to reference,[2]; EEE 5 µM,0.507
same,Gal9 response compared to reference,[2]; EEE 10 µM,0.623
same,Gal9 response compared to reference,[3]; EEE 0.31 µM,0.027
same,Gal9 response compared to reference,[3]; EEE 0.62 µM,0.022
same,Gal9 response compared to reference,[3]; EEE 1.25 µM,0.106
same,Gal9 response compared to reference,[3]; EEE 2.5 µM,0.438
same,Gal9 response compared to reference,[3]; EEE 5 µM,0.779
same,Gal9 response compared to reference,[3]; EEE 10 µM,0.493
same,Gal9 response compared to reference,[4]; EEE 0.31 µM,0.012
same,Gal9 response compared to reference,[4]; EEE 0.62 µM,0.015
same,Gal9 response compared to reference,[4]; EEE 1.25 µM,0.018
same,Gal9 response compared to reference,[4]; EEE 2.5 µM,0.048
same,Gal9 response compared to reference,[4]; EEE 5 µM,0.317
same,Gal9 response compared to reference,[4]; EEE 10 µM,0.483
same,Gal9 response compared to reference,[5]; EEE 0.31 µM,0.005
same,Gal9 response compared to reference,[5]; EEE 0.62 µM,0.004
same,Gal9 response compared to reference,[5]; EEE 1.25 µM,0.013
same,Gal9 response compared to reference,[5]; EEE 2.5 µM,0.253
same,Gal9 response compared to reference,[5]; EEE 5 µM,0.553
same,Gal9 response compared to reference,[5]; EEE 10 µM,0.370
same,Gal9 response compared to reference,[6]; EEE 0.31 µM,0.016
same,Gal9 response compared to reference,[6]; EEE 0.62 µM,0.020
same,Gal9 response compared to reference,[6]; EEE 1.25 µM,0.036
same,Gal9 response compared to reference,[6]; EEE 2.5 µM,0.143
same,Gal9 response compared to reference,[6]; EEE 5 µM,0.614
same,Gal9 response compared to reference,[6]; EEE 10 µM,0.576
same,Gal9 response compared to reference,[7]; EEE 0.31 µM,0.014
same,Gal9 response compared to reference,[7]; EEE 0.62 µM,0.018
same,Gal9 response compared to reference,[7]; EEE 1.25 µM,0.385
same,Gal9 response compared to reference,[7]; EEE 2.5 µM,0.801
same,Gal9 response compared to reference,[7]; EEE 5 µM,0.691
same,Gal9 response compared to reference,[7]; EEE 10 µM,0.469
same,Gal9 response compared to reference,[8]; EEE 0.31 µM,0.009
same,Gal9 response compared to reference,[8]; EEE 0.62 µM,0.008
same,Gal9 response compared to reference,[8]; EEE 1.25 µM,0.007
same,Gal9 response compared to reference,[8]; EEE 2.5 µM,0.019
same,Gal9 response compared to reference,[8]; EEE 5 µM,0.163
same,Gal9 response compared to reference,[8]; EEE 10 µM,0.568
same,Gal9 response compared to reference,[9]; EEE 0.31 µM,0.009
same,Gal9 response compared to reference,[9]; EEE 0.62 µM,0.008
same,Gal9 response compared to reference,[9]; EEE 1.25 µM,0.023
same,Gal9 response compared to reference,[9]; EEE 2.5 µM,0.154
same,Gal9 response compared to reference,[9]; EEE 5 µM,0.258
same,Gal9 response compared to reference,[9]; EEE 10 µM,0.222
